Results taken from patent US9107909B2, “Materials and methods to enhance hematopoietic stem cells engraftment procedures” (priority 2008, dated 2015).
Entries after “also recorded” stand apart in the source; their conditions may differ.

Legend:
SKL cells [1] = test: In vitro cell cycle analysis; format: cell-based, mouse
Experimental: For in vitro cell cycle analysis, Lin^neg cells were treated with either 1 microMolar dmPGE2 or vehicle for 2 hours, washed, and cultured in Stem Cell Pro Media (Stem Cell Technologies) with rmSCF (50 ng/ml) (R&D Systems, Minneapolis, Minn.), rhFlt-3 and rhTPO (100 ng/ml each) (Immunex, Seattle, Wash.). After 20 hours, cells were stained for SKL, fixed and permeabilized, and stained with 7AAD (BD Biosciences, San Jose, Calif.). The proportion of SKL cells in S+G2/M phase was determined by measuring DNA content by FACS. For in vivo cell cycle analysis, CD45.2 mice were lethally irradiated and transplanted with 5×10^6 Lin^neg cells from CD45.1 mice treated with either 1 microMolar dmPGE2 or vehicle for 2 hours. At the time of transplant, recipient mice received 1 milligram/mL BrdU (Sigma Aldrich, St. Louis, Mo.) in drinking water and 1 mg per mouse BrdU I.P. After 16 hours, recipient marrow was isolated, lineage depleted, and stained for CD45.1, SKL and BrdU. The proportion of homed (CD45.1^+) SKL cells that were BrdU^+ was determined by FACS in individual mice.
Survivin regulates HSPC entry into and progression through cell cycle. Furthermore, β-catenin, implicated in HSPC proliferation and self-renewal, lies downstream of EP receptor pathways. […] To test this hypothesis, the cell cycle status of SKL cells pulsed with dmPGE2 or vehicle in vitro was analyzed. Referring now to FIG. 6A, pulse-exposure to dmPGE2 increased DNA content in SKL cells, an indication of increased cell cycling (left panels, upper right quadrant). In 3 experiments, 60% more SKL cells were in S+G2/M phase of the cell cycle after dmPGE2 treatment compared to controls (FIG. 6A right panel).
Lineage^neg cells were treated with either vehicle or 1 microMolar dmPGE2 for 2 hours, washed and cultured in media with rmSCF, rhFlt3 and rhTpo. After 20 hours cells were stained for SKL and Hoechst-33342 and Pyronin-Y. The proportion of SKL cells in cell cycle were measured by FACS. Referring now to FIG. 12, representative flow plot showing cell cycle distribution of gated SKL cells and combined data for fold increase in cell cycle for dmPGE2-treated cells compared to vehicle control from 3 experiments, Mean±SEM, n=9 mice, each assayed individually. […]
Referring now to FIG. 8, table summarizing data collected using Lin^neg bone marrow cells treated with either 1 microMolar dmPGE2 or vehicle for 2 hours and cultured in the presence of growth factors (50 ng/ml rmSCF, 100 ng/ml each of rhFlt-3 and rhTPO) for 20 hours, were stained for SLAM SKL, Hoechst-33342 and Pyronin-Y and the proportion of SLAM SKL cells in G0, G1, S and G2/M phase of the cell cycle determined by quantitation of the DNA and the RNA content by FACS. Data are Mean±SEM for n=9 mice, each assayed individually. ^(b)Percentage of cells in G1+S+G2M; Combined data for n=9 mice. ^(*^)P<0.05 compared to vehicle control.

SKL cells [2] = test: HSPC homing to bone marrow in vivo; set-up: species or system mouse; details: for increase in in vivo marrow homing efficiency: pulse-exposed grafts or purified SKL cells, 16 hours post-transplant; for SKL cells homed to the marrow: vs vehicle-treated or un-manipulated cells
Experimental: CD45.2 WBM was labeled with CFSE (Molecular Probes, Eugene, Oreg.) washed and treated on ice with either 1 microMolar dmPGE2 or vehicle. After treatment, cells were washed and 2×10^7 cells transplanted into lethally irradiated CD45.2 mice. After 16 hours, femurs and tibias were flushed, and a proportion of mouse marrow Lin^+ cells depleted using MACS microbeads (Miltenyi Biotech), stained with fluorochrome-conjugated-antibodies specific for biotin (lineage), c-kit (K), and Sca-1 (S) and the total number of CFSE^+ WBM (non lineage depleted), KL and SKL cells determined. For congenic homing studies, Lin^neg CD45.1 cells were treated on ice with 1 microMolar dmPGE2, vehicle, or PBS. After incubation, cells were washed and 2×10^6 cells transplanted into CD45.2 mice. After 16 hours, recipient bone marrow was harvested, lineage depleted, stained, and donor CD45.1 SKL cells determined. For competitive, head-to-head homing studies using sorted SKL cells, Lin^neg cells from CD45.2 and CD45.1 mice were FACS sorted, cells treated with either dmPGE2 or vehicle for 2 hours, washed and 3×10^4 CD45.1 (vehicle or dmPGE2 treated) plus 3×10^4 CD45.2 (dmPGE2 or vehicle treated) SKL cells transplanted into lethally irradiated F1 Hybrid mice. To evaluate the role of CXCR4 in homing studies, Lin^neg CD45.2 cells were treated on ice with vehicle or 1 microMolar dmPGE2 plus 10 microMolar AMD3100 (AnorMed Inc., Vancouver, BC, Canada) and 2×10^6 treated cells injected into lethally irradiated CD45.1 mice. Homed SKL cells were analyzed 16 hours post-transplant.
Irrespective of its cause a marrow niche is required for HSPC to self-renew and differentiate and it is very likely that only HSPC homing to these niches can provide long-term repopulation. Referring now to FIG. 3A, in order to assess HSPC homing, CFSE labeled whole bone marrow (WBM) CD45.2 cells were pulsed with dmPGE2 or vehicle for 2 hours on ice, washed and injected IV in lethally irradiated CD45.2 hosts. After 16 hours, total CFSE^+ cells homing to bone marrow as well as the number of homed events within the KL and SKL cell populations were quantified.
Highly purified SKL cells from both CD45.2 and CD45.1 mice were isolated by FACS sorting, treated with dmPGE2 or vehicle, and 3×10^4 vehicle-treated CD45.1 cells plus 3×10^4 dmPGE2-treated CD45.2 cells transplanted into CD45.1/CD45.2 mice. An additional cohort was concurrently transplanted with congenic strain and treatment groups were switched to test for any bias in strain homing. […] Although SKL cells are not a homogenous HSPC population, they are highly enriched for LTRC (Okada et al., 1992; Spangrude and Scollay, 1990).
To evaluate the role of CXCR4 in homing, Lineage^neg CD45.2 cells were treated with vehicle or 1 microMolardmPGE2 plus 10 microMolar AMD3100, 2×10^6 treated cells injected into lethally-irradiated CD45.1 mice and homed SKL cells recovered 16 hours post-transplant and analyzed by FACS. Referring now to FIG. 11, homing efficiency of vehicle and dmPGE2 treated cells to bone marrow in the absence and presence of 10 microMolar AMD3100. Cells were incubated with AMD3100 for 30 minutes prior to the homing assay.

Structure (SMILES) | cell cycle rate of KL or Lin neg cells (SKL cells [1]; in vitro) | more SKL cells in S+G2/M phase of the cell cycle (SKL cells [1]; in vitro, 3 experiments, vs controls) | increase in in vivo marrow homing efficiency (SKL cells [2]) | percentage of CFSE+ cells homing to the marrow, total WBM cells (SKL cells [2]; vs vehicle-treated cells, 16 hours) | SKL cells homed to the marrow (SKL cells [2]; 16 hours) | cell cycle rate of CD150+48− (SLAM) SKL cells (SKL cells [1]; in vitro, 1 microMolar 2 hours, 20 hours culture) | proportion of SKL cells actively in cell cycle (SKL cells [1]; in vitro, within 24 hours post-treatment) | increase in proportion of HSPC in cell cycle / HSPC cell cycle activity (SKL cells [1]; pulse exposure)
CCCCC(C)(C)[C@H](O)/C=C/[C@H]1[C@H](O)CC(=O)[C@@H]1C/C=C\CCCC(=O)O [dmPGE2, 16,16-dimethyl prostaglandin E2] | No significant effect | 60% | 2 fold | No difference | significantly more SKL cells homed; also recorded: significantly greater percentage of SKL cells | – | – | –
CCCCC[C@H](O)/C=C/[C@H]1[C@H](O)CC(=O)[C@@H]1C/C=C\CCCC(=O)O [PGE2, Prostaglandin E2] | – | – | ~2 fold | – | higher proportion | Increases the Cell Cycle Rate | increase | ~2 fold
